The source of these data is patent publication US20120077732A1, “CYCLIC PEPTIDES AND USES THEREOF” (SYDNEY WEST AREA HEALTH SERVICE, priority 2008, published 2012).

For data set [1], the system named is 2B4.11 hybridoma. Nature of the data set: Antigen presentation assay (IL-2 produced in response to antigen). The class given is cell-based.
Data set [2] in a line: Surface plasmon resonance binding to DMPC liposomes. Conditions: SPR, L1 sensor chip, 50 μM, 25° C. As for the experimental part: (§1) Model membranes composed of zwitterionic and anionic phospholipids were prepared as previously described (Bender et al., 2004). Briefly, DMPC and DMPG were dissolved in dry chloroform and chloroform/methanol (2:1) respectively to give 10 mg/ml solutions. […] The solution was sonicated in an ultrasonic bath for 20 min. Eight cycles of freeze/thawing was followed by extrusion through polycarbonate filters, first 100 nm (21 times) then 50 nm pore diameter (21 times), using a Lipofast apparatus (Avestin, Ottawa, Canada) and SUVs were used immediately. SPR was carried out on a BIAcore 2000 instrument using Pioneer Sensor Chip L1 and HEPES (HBS-N, Biacore, Upssala, Sweden) as running buffer. The chip surface was cleaned with 40 mM octyl glycoside (30 μl, 10 μl/min) followed liposomes (SUV) (100 μl, 5 μl/min). 10 mM NaOH (40 μl, 10 μl/min) removed any multilamellar vesicles from the surface before injecting the lipopeptide solutions (100 μl, 5 μl/min). The dissociation stage was 1200 sec. […] All SPR experiments were run at 25° C. and all analyses were performed using the BIAevaluation software (Biacore, Uppsala, Sweden). Lipopeptide binding was expressed as the difference in signal between points before sample injection and after dissociation.
For orientation: SPR reads the build-up and loss of mass on a sensor chip optically.

Data set [3] in a line: Surface plasmon resonance binding to DMPG liposomes. Conditions: SPR, L1 sensor chip, 50 μM, 25° C. As for the experimental part:
as §1

In data set [4] the test system is allergic mice (OVA/OVA). Briefly: Allergic airways disease (OVA) model: inflammatory cells in BALF. The class given is in vivo. Details: key to Airway lymphocytes / Airway eosinophils / Airway macrophages / Airway inflammatory cells / Airway neutrophils: nc: no change; ↑: increase; ↓: decrease.
Data set [5] deals with allergic mice (OVA/OVA). Nature of the data set: Allergic airways disease (OVA) model: local and systemic OVA-specific cytokine production. Set-up: key to Spleen OVA-stimulated IL-5 / Spleen OVA-stimulated IL-13 / LN OVA-stimulated IL-5 / LNOVA stimulated IL-13: nc: no change; ↑: increase; ↓: decrease. The format is in vivo.
For data set [6], the system named is allergic mice (OVA/OVA). Nature of the data set: Allergic airways disease (OVA) model: airways hyperreactivity to methacholine. The class given is in vivo. Set-up: key to Airway Resistance / Airway Compliance: nc: no change; ↑: increase; ↓: decrease.
In data set [7] the test system is trypsin. The format is in vitro ADME. As for the experimental part: The effect of trypsin on C1 and CP was studied by incubating each peptide (1 μg/μl) in methanol and ammonium bicarbonate (0.1M) with 125 ng/μl of trypsin at pH 8 and 37° C. The effect of trypsin after incubation with CP and C1 was followed by mass spectrometry. […]
[8] abbreviates: 200 μg s.c. during challenge, allergic mice.
Where [9] appears, read: 200 μg/100 μl s.c. during OVA challenge, compared to OVA/OVA alone.

No end group written: not given here.

Turning to LDRLDLLDLLDKVDG [C1-L], the “% Ave IL2 Production” value in data set [1] (average, Tables 1-3) was 90%. Besides, in data set [1] (peptide 50 μM, 0.5% DMSO, ±SD), the “IL-2 production, % of the solvent only control value” is listed as “only minimal activity”. For the same sequence, in data set [2], the “binding to DMPC (zwitterionic) liposomes” value was “only very limited binding”. In addition, the “binding to DMPG (anionic) liposomes” value in data set [3] is recorded as “only very limited binding”. In addition, in data set [4] (setting [8]), the “eosinophils in BALF” value was “decrease” and the “total inflammatory cell counts in bronchoalveolar lavage fluid (BALF)” value is given as “significantly decreased”. For the same sequence, in data set [4] (setting [9]), the Airway eosinophils entry is on record as “↓”, the Airway inflammatory cells entry is “↓”, the Airway lymphocytes entry is on record as “nc” and the Airway macrophages result is reported as “nc”. Moreover, the Airway neutrophils result in data set [4] (setting [9]) was “nc”. In data set [5] (setting [8]), the “locally produced (peribronchial lymph node derived) IL-5” value is listed as “no significant impact”, the “locally produced (peribronchial lymph node derived) IL-13” value is “no significant impact”, the “systemic (spleen derived) IL-5” value is given as “significantly decreased” and the “systemic (spleen derived) IL-13” value was “no change”. In data set [5] (setting [9]), the “LN OVA-stimulated IL-5” value is on record as “nc”, the “LNOVA stimulated IL-13” value was “nc”, the “Spleen OVA-stimulated IL-5” value is recorded as “↓” and the “Spleen OVA-stimulated IL-13” value was “nc”. In addition, in data set [6] (setting [8]), the “airway resistance in response to methacholine challenge” value is listed as “no significant effect” and the “dynamic compliance in response to methacholine challenge” value is given as “no significant effect”. For the same sequence, in data set [6] (setting [9]), the “Airway Compliance” value is “nc” and the “Airway Resistance” value was “nc”.
For “GLRILLLKV [CP, GLRILLLKV, reference compound]”, in data set [7], the “stability without trypsin, 3 hours (Mass spectroscopy-MS)” value is recorded as “No degradation product” and the “stability without trypsin, 24 hours (MS)” value is recorded as “No degradation product”.
